Data as given in patent US11008323B2, “Substituted tricyclic 1,4-benzodiazepinone derivatives as allosteric modulators of group II metabotropic glutamate receptors” (Domain Therapeutics, priority 2015, dated 2021).

Biological target: T1, human mGluR3 (hmGluR3) (Homo sapiens, UniProt Q14832)
T1 construct: expressed in transfected cells; host or cells: HEK-293 cells, transient co-transfection by electroporation
Assay: Human mGluR3 positive allosteric modulator evaluation using Ca++ functional assay
Type: cell-based
Settings: hmGluR3 transiently over-expressed in HEK-293 cells; stimulated by EC50 glutamate concentration; intracellular Ca2+ (Fluo4AM, FLIPR Tetra)
Procedure: Compounds of the present invention were tested successively for their agonist and positive allosteric modulator activities on human mGluR3 (hmGluR3) transiently over-expressed in HEK-293 cells. Compounds exert agonist activity if they are able to activate hmGluR3 by themselves, i.e., in absence of the endogenous agonist glutamate; and they exert positive allosteric modulator activity if they increase the action of the endogenous agonist glutamate.
HEK-293 cells were maintained in Modified Eagle's Medium supplemented with 10% Foetal Calf Serum, 1% Penicillin/Streptomycin and 1% non-essential amino acids at 37° C./5% CO2.
Cells were co-transfected by electroporation with four DNA plasmids encoding hmGluR3, a chimeric G protein allowing redirection of the activation signal toward intracellular calcium pathway, and two glutamate transporters so as to decrease extracellular glutamate levels and avoid receptor desensitization (Brabet I et al., Neuropharmacology 37(8), 1043-51, 1998). After transfection, cells were seeded in 75 cm^2 culture flasks, and cultured for 24 h.
Receptor activity was detected by changes in intracellular calcium measured using the fluorescent Ca^2+ sensitive dye, Fluo4AM (Molecular Probes).
The day of the assay, medium was aspirated and replaced during 3 hrs by freshly prepared buffer B (HBSS 1×, Hepes 20 mM, MgSO4-7H2O 1 mM, Na2CO3 3.3 mM, CaCl2-2H2O 1.3 mM, 0.5% BSA, Probenecid 2.5 mM). Then, cells were loaded at 37° C./5% CO2 for 1.5 hrs with buffer B containing 1 μM Fluo4AM, 0.1 mg/mL Pluronic Acid, 7 μg/mL Glutamate Pyruvate Transaminase and 2 mM sodium pyruvate. Afterwards cells were washed with buffer B. Cells were then detached from the 75 cm^2 culture flasks with Accutase® (5 min incubation at 37° C.), centrifuged (5 min at 840 rpm), resuspended in buffer B and finally seeded at a density of 30,000 cells/well in black-walled clear-bottom 384-well plates. Addition of compounds on cells and intracellular Ca^2+ measurements (excitation 485 nm, emission 525 nm) were performed by the fluorescence microplate reader FLIPR Tetra (Molecular Devices).
Agonist and positive allosteric modulator activities of compounds were consecutively evaluated on the same cells plate. Agonist activity was first tested during 10 min with the addition of compound alone on the cells. Then, the cells were stimulated by an EC50 glutamate concentration and fluorescence was recorded for additional 3 min. EC50 glutamate concentration is the concentration giving 50% of the maximal glutamate response. Agonist and/or positive allosteric modulator activity(ies) were evaluated in comparison to basal signal or signal evoked by EC50 glutamate concentration alone, respectively.
For potency determination, a dose-response test was performed using 20 concentrations of each compound of the invention. Dose-response curves were fitted using the sigmoïdal dose-response (variable slope) analysis in XLfit Scientific Curve Fitting for Excel (IDBS). EC50 of agonist/EC50 of positive allosteric modulator activity(ies) were calculated. Dose-response experiments were all performed in duplicate, two times independently.

T1 sequence (Q14832 23-879): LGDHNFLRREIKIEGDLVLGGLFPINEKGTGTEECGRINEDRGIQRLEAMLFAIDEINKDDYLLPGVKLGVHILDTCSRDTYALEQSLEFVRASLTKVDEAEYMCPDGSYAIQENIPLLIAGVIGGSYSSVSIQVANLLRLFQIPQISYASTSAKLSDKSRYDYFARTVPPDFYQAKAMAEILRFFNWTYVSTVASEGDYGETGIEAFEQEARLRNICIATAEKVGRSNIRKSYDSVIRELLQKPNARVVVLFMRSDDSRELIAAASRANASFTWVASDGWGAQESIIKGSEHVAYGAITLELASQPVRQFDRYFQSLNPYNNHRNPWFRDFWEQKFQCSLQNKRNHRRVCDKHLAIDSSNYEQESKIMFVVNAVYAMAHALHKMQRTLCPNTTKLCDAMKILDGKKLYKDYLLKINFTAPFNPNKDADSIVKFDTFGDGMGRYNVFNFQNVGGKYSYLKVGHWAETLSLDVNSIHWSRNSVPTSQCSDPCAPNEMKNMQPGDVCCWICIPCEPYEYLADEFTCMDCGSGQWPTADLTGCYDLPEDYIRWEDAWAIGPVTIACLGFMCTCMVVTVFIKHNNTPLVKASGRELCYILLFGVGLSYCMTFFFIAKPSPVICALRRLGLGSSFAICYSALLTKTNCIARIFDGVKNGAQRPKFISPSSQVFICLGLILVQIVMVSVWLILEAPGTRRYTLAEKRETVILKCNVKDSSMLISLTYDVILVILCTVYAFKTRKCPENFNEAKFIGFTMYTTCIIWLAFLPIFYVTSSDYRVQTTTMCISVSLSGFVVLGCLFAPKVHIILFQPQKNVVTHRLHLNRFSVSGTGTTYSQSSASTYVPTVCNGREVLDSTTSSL

Question: How did the EC50 turn out when Cc1cc(-c2ccc3c(c2)-n2nc(-c4ccccc4)cc2C(=O)N(C)C32CC2)ccn1 [Example 122, 9-(2-Methyl-pyridin-4-yl)-5-methyl-2-phenyl-spiro[benzo[f]pyrazolo[1,5-a][1,4]diazepine-6,1′-cyclopropan]-4(5H)-one] was run?
Answer: 100 to 1000 nM

Question: Cc1ncccc1-c1ccc2c(c1)-n1cc(-c3ccc(Cl)cc3)cc1C(=O)N(C)C21CC1 [Example 149] was tested. Which EC50 did it give?
Answer: 100 to 1000 nM

Question: How did the EC50 turn out when CN1C(=O)c2cc(-c3ccccc3)cn2-c2cc(-c3ccccn3)ccc2C12CC2 [Example 111, 5-Methyl-2-phenyl-9-(pyridin-2-yl)-spiro[benzo[f]pyrrolo[1,2-a][1,4]diazepine-6,1′-cyclopropan]-4(5H)-one] was run?
Answer: < 100 nM

Question: CNc1ccc(-c2ccc3c(c2)-n2cc(-c4ccccc4)cc2C(=O)N(C)C32CC2)cn1 [Example 118, 5-Methyl-2-phenyl-9-(6-methylamino-pyridin-3-yl)-spiro[benzo[f]pyrrolo[1,2-a][1,4]diazepine-6,1′-cyclopropan]-4(5H)-one] was tested. Which EC50 did it give?
Answer: < 100 nM

Question: For CN1C(=O)c2cccn2-c2cc(C3=CCNCC3)ccc2C12CC2 [Example 46, 5-Methyl-9-(1,2,3,6-tetrahydro-pyridin-4-yl)-spiro[benzo[f]pyrrolo[1,2-a][1,4]diazepine-6,1′-cyclopropan]-4(5H)-one], which EC50 is on record?
Answer: > 1000 nM

Question: With Cc1ncccc1-c1ccc2c(c1)-n1cc(-c3ccccc3F)cc1C(=O)N(C)C21CC1 [Example 151] as the compound, how does the EC50 read?
Answer: < 100 nM

Question: For CN1C(=O)c2cccn2-c2cc(-c3ccc(N4CCCCC4)nc3)ccc2C12CC2 [Example 43, 5-Methyl-9-(3,4,5,6-tetrahydro-2H-[1,2′]bipyridinyl-5′-yl)-spiro[benzo[f]pyrrolo[1,2-a][1,4]diazepine-6,1′-cyclopropan]-4(5H)-one], which EC50 is on record?
Answer: > 1000 nM

Question: Cc1ncccc1-c1ccc2c(c1F)-n1cccc1C(=O)N(C)C21CC1 [Example 75, 10-Fluoro-5-methyl-9-(2-methyl-pyridin-3-yl)-spiro[benzo[f]pyrrolo[1,2-a][1,4]diazepine-6,1′-cyclopropan]-4(5H)-one] was tested. Which EC50 did it give?
Answer: 100 to 1000 nM

Question: For Cc1ncccc1-c1ccc2c(c1)-n1cc(-c3cccnc3)cc1C(=O)N(C)C21CC1 [Example 143], which EC50 is on record?
Answer: < 100 nM

Question: CCc1ncccc1-c1ccc2c(c1)-n1cc(-c3ccccc3)cc1C(=O)N(C)C21CC1 [Example 99, 5-Methyl-2-phenyl-9-(2-ethyl-pyridin-3-yl)-spiro[benzo[f]pyrrolo[1,2-a][1,4]diazepine-6,1′-cyclopropan]-4(5H)-one] was tested. Which EC50 did it give?
Answer: 100 to 1000 nM

Question: For CC(=O)c1cc2n(c1)-c1cc(-c3cccnc3C)ccc1C1(CC1)N(C)C2=O [Example 195], which EC50 is on record?
Answer: 100 to 1000 nM

Question: With Cc1ncccc1-c1cc(F)c2c(c1)-n1cccc1C(=O)N(C)C21CC1 [Example 73, 7-Fluoro-5-methyl-9-(2-methyl-pyridin-3-yl)-spiro[benzo[f]pyrrolo[1,2-a][1,4]diazepine-6,1′-cyclopropan]-4(5H)-one] as the compound, how does the EC50 read?
Answer: < 100 nM

Question: For Cc1ncccc1-c1ccc2c(c1)-n1cc(-c3ccnn3C)cc1C(=O)N(C)C21CC1 [Example 160], which EC50 is on record?
Answer: < 100 nM

Question: With CN1C(=O)c2cc(-c3ccccc3)cn2-c2ccc(Br)cc2C12CC2 [Example 16, 8-Bromo-5-methyl-2-phenyl-spiro[benzo[f]pyrrolo[1,2-a][1,4]diazepine-6,1′-cyclopropan]-4(5H)-one] as the compound, how does the EC50 read?
Answer: > 1000 nM

Question: How did the EC50 turn out when Cc1cncc(-c2ccc3c(c2)-n2cc(-c4ccccc4)cc2C(=O)N(C)C32CC2)c1 [Example 98, 5-Methyl-2-phenyl-9-(5-methyl-pyridin-3-yl)-spiro[benzo[f]pyrrolo[1,2-a][1,4]diazepine-6,1′-cyclopropan]-4(5H)-one] was run?
Answer: 100 to 1000 nM

Question: With CN1C(=O)c2cc(-c3ccccc3)nn2-c2cc(Br)ccc2C12CC2 [Example 11, 9-Bromo-5-methyl-2-phenyl-spiro[benzo[f]pyrazolo[1,5-a][1,4]diazepine-6,1′-cyclopropan]-4(5H)-one] as the compound, how does the EC50 read?
Answer: > 1000 nM

Question: How did the EC50 turn out when CN1C(=O)c2cccn2-c2cc(C3=CCN(c4ccncn4)CC3)ccc2C12CC2 [Example 47, 5-Methyl-9-(1-pyrimidin-4-yl-1,2,3,6-tetrahydro-pyridin-4-yl)-spiro[benzo[f]pyrrolo[1,2-a][1,4]diazepine-6,1′-cyclopropan]-4(5H)-one] was run?
Answer: 100 to 1000 nM

Question: Which EC50 does the source give for Cc1cc(-c2ccc3c(c2)-n2cccc2C(=O)N(C)C32CC2)ccn1 [Example 26, 5-Methyl-9-(2-methylpyridin-4-yl)-spiro[benzo[f]pyrrolo[1,2-a][1,4]diazepine-6,1′-cyclopropan]-4(5H)-one] here?
Answer: 100 to 1000 nM

Question: How did the EC50 turn out when Cc1cc(-c2ccc3c(c2)-n2cc(-c4ccccc4)cc2C(=O)N(C)C32CC2)cc(C)n1 [Example 97, 5-Methyl-2-phenyl-9-(2,6-dimethyl-pyridin-4-yl)-spiro[benzo[f]pyrrolo[1,2-a][1,4]diazepine-6,1′-cyclopropan]-4(5H)-one] was run?
Answer: 100 to 1000 nM

Question: Cc1ccnc(C)c1-c1ccc2c(c1)-n1cccc1C(=O)N(C)C21CC1 [Example 65, 5-Methyl-9-(2,4-dimethylpyridin-3-yl)-spiro[benzo[f]pyrrolo[1,2-a][1,4]diazepine-6,1′-cyclopropan]-4(5H)-one] was tested. Which EC50 did it give?
Answer: > 1000 nM

Question: For CN1C(=O)c2cccn2-c2cc(Br)c(F)cc2C12CC2 [Example 9, 9-Bromo-8-fluoro-5-methyl-spiro[benzo[f]pyrrolo[1,2-a][1,4]diazepine-6,1′-cyclopropan]-4(5H)-one], which EC50 is on record?
Answer: > 1000 nM

Question: Cc1ncccc1-c1ccc2c(c1)-n1cc(-c3ncc[nH]3)cc1C(=O)N(C)C21CC1 [Example 184] was tested. Which EC50 did it give?
Answer: < 100 nM

Question: How did the EC50 turn out when CN1C(=O)c2cccn2-c2cc(Cl)ccc2C1(C)C [Example 222, 9-Chloro-5,6,6-trimethyl-5,6-dihydro-benzo[f]pyrrolo[1,2-a][1,4]diazepin-4-one] was run?
Answer: > 1000 nM

Question: For Cc1ncccc1-c1ccc2c(c1)-n1cc(C3CC3)cc1C(=O)N(C)C21CC1 [Example 155], which EC50 is on record?
Answer: < 100 nM

Question: How did the EC50 turn out when Cc1ccc(-c2ccc3c(c2)-n2cccc2C(=O)N(C)C32CC2)cn1 [Example 25, 5-Methyl-9-(6-methylpyridin-3-yl)-spiro[benzo[f]pyrrolo[1,2-a][1,4]diazepine-6,1′-cyclopropan]-4(5H)-one] was run?
Answer: < 100 nM

Question: How did the EC50 turn out when CN1C(=O)c2cccn2-c2cc(-c3ccncc3)ccc2C12CC2 [Example 22, 5-Methyl-9-(pyridin-4-yl)-spiro[benzo[f]pyrrolo[1,2-a][1,4]diazepine-6,1′-cyclopropan]-4(5H)-one] was run?
Answer: 100 to 1000 nM

Question: CN1C(=O)c2cc(-c3ccccc3)cn2-c2cc(-c3cncnc3)ccc2C12CC2 [Example 104, 5-Methyl-2-phenyl-9-(pyrimidin-5-yl)-spiro[benzo[f]pyrrolo[1,2-a][1,4]diazepine-6,1′-cyclopropan]-4(5H)-one] was tested. Which EC50 did it give?
Answer: 100 to 1000 nM

Question: How did the EC50 turn out when Cc1ncccc1-c1ccc2c(c1)-n1c(F)ccc1C(=O)N(C)C21CC1 [Example 81, 9-(2-Methyl-pyridin-3-yl)-1-fluoro-5-methyl-spiro[benzo[f]pyrrolo[1,2-a][1,4]diazepine-6,1′-cyclopropan]-4(5H)-one] was run?
Answer: < 100 nM

Question: Cc1ncccc1-c1ccc2c(c1)-n1cc(-c3ccccc3)nc1C(=O)N(C)C21CC1 [Example 140, 9-(2-Methyl-pyridin-3-yl)-5-methyl-2-phenyl-spiro[benzo[f]imidazo[1,2-a][1,4]diazepine-6,1′-cyclopropan]-4(5H)-one] was tested. Which EC50 did it give?
Answer: < 100 nM

Question: Which EC50 does the source give for CN1C(=O)c2cc(-c3ccccc3)nn2-c2cc(-c3cccc(Cl)c3)ccc2C12CC2 [Example 130, 9-(3-Chloro-phenyl)-5-methyl-2-phenyl-spiro[benzo[f]pyrazolo[1,5-a][1,4]diazepine-6,1′-cyclopropan]-4(5H)-one] here?
Answer: 100 to 1000 nM

Question: How did the EC50 turn out when Cc1ncccc1-c1ccc2c(c1)-n1cc(-c3cccc(Cl)c3)cc1C(=O)N(C)C21CC1 [Example 148] was run?
Answer: 100 to 1000 nM

Question: With CCc1ncccc1-c1ccc2c(c1)-n1cc(COC)cc1C(=O)N(C)C21CC1 [Example 206] as the compound, how does the EC50 read?
Answer: < 100 nM

Question: With Cc1ccc(-c2ccc3c(c2)-n2nc(-c4ccccc4)cc2C(=O)N(C)C32CC2)c(C)n1 [Example 126, 9-(2,6-Dimethyl-pyridin-3-yl)-5-methyl-2-phenyl-spiro[benzo[f]pyrazolo[1,5-a][1,4]diazepine-6,1′-cyclopropan]-4(5H)-one] as the compound, how does the EC50 read?
Answer: < 100 nM
